Measured values as given in US20040121946A9, “Inducing cellular immune responses to her2/neu using peptide and nucleic acid compositions” (priority 2002, published 2004).

Assays:
DRB1*0101 (DR1) = DRB1*0101 (DR1) (Homo sapiens, UniProt P01903+P01911, A100R/D57E/F55L/F60I/F76Y/I96L/L162R/M171V/P40L/Q125E/R42F/V115G/Y59C); experiment: HLA class II peptide binding assay, purified HLA; conditions: unit not given
DRB1*0301 (DR3) = DRB1*0301 (DR3) (Homo sapiens, UniProt P01903+P01911, A100K/A102G/A103R/A169T/F55Y/I96L/K41T/L162R/M171V/P40S/Q125H/Q178H/Q39Y/R42S/S66N/T106N/T262R/W38E/Y61H); experiment: HLA class II peptide binding assay, purified HLA; conditions: unit not given
DRB1*0401 (DR4w4) = DRB1*0401 (DR4w4) (Homo sapiens, UniProt P01903+P01911, A100K/A169T/F76Y/I96L/K127E/L162R/M171V/N62H/P40V/Q125Y/R42H/S133A/S149N/S66Y/V115G/V209L/W38E); experiment: HLA class II peptide binding assay, purified HLA; conditions: unit not given
DRB1*0701 (DR7) = DRB1*0701 (DR7) (Homo sapiens, UniProt P01903+P01911, A100R/A102G/A103Q/D57E/D86V/E43K/F76Y/K127E/L162R/M171V/P40G/Q125H/Q99D/R33Q/R42Y/R54Q/S133A/S66F/T210M/V115G/Y107V/Y59L/Y89S); experiment: HLA class II peptide binding assay, purified HLA; conditions: unit not given
DRB1*0802 (DR8w2) = DRB1*0802 (DR8w2) (Homo sapiens, UniProt P01903+P01911, A100R/A103L/A169T/F76Y/H45Y/I96F/K41T/L162R/M171V/P40S/Q125H/Q178H/Q39Y/Q99D/R218S/R42G/S66Y/V115G/W38E); experiment: HLA class II peptide binding assay, purified HLA; conditions: for DR8w2 binding data: unit not given
DRB1*1101 (DR5w11) = DRB1*1101 (DR5w11) (Homo sapiens, UniProt P01903+P01911, A100R/A169T/A87E/I96F/K41T/L162R/M171V/P40S/Q125H/Q178H/Q39Y/Q99D/R42S/S66Y/T262R/V115G/W38E); experiment: HLA class II peptide binding assay, purified HLA; conditions: unit not given
DRB1*1302 (DR6w19) = DRB1*1302 (DR6w19) (Homo sapiens, UniProt P01903+P01911, A100E/A169T/K41T/L162R/M171V/P40S/Q125H/Q178H/Q39Y/Q99D/R42S/S66N/T262R/V115G/W38E/Y61H); experiment: HLA class II peptide binding assay, purified HLA; conditions: for DR6w19 binding data: unit not given
DRB1*1501 (DR2w2β1) = DRB1*1501 (DR2w2β1) (Homo sapiens, UniProt P01903+P01911); experiment: HLA class II peptide binding assay, purified HLA; conditions: for DR2wB1 binding data: Table XIX, DR supermotif peptides
DRB5*0101 (DR2w2β2) = DRB5*0101 (DR2w2β2) (Homo sapiens, UniProt P01903+Q30154); experiment: HLA class II peptide binding assay, purified HLA; conditions: for DR2w2B2 binding data: unit not given
[1] = tested on: HLA-DR molecules (DR1, DR4w4, DR7, DRB5*0101, DRB1*1501, DRB1*1101, DRB1*0802, DRB1*1302); experiment: DR supertype cross-reactive binding; set-up: species or system human; conditions: for No. of DR Alleles Crossbound: Table XXXI; for DR147 Binding / DR147 Cross-binding: number of DR1, DR4w4, DR7 bound; for DR147 Binding: Table XXIX; for DR147 Cross-binding: Table XXVIII; for Broad Binding (5/8): number of the 8 DR alleles bound
HLA-A*0301 = HLA-A*0301 (Homo sapiens, UniProt P04439); assay type: binding; conditions: Table XXIII, HLA-A3 supermotif-bearing peptides
HLA-A*1101 = HLA-A*1101 (Homo sapiens, UniProt P04439, A114D/D185E/E176A/F33Y/L180Q/S129P/T187R); assay type: binding; conditions: Table XXIII, HLA-A3 supermotif-bearing peptides
HLA-A*3101 = HLA-A*3101 (Homo sapiens, UniProt P04439, A270S/D185E/E176V/E277Q/F33T/G231S/G80R/H175R/I121M/I218V/I322F/K168Q/L300P/L318F/M331R/P217A/Q94H/R138Q/T323A/T345S/T97I/V358M); assay type: binding; conditions: Table XXIII, HLA-A3 supermotif-bearing peptides
HLA-A*3301 = HLA-A*3301 (Homo sapiens, UniProt P04439, A270S/D185E/E176V/E277Q/E87N/F33T/G231S/H175R/I121M/I218V/I322F/K168Q/K210R/L300P/L318F/M331R/P217A/Q86R/Q94H/R138Q/T323A/T345S/T97I/V358M/Y195H); assay type: binding; conditions: Table XXIII, HLA-A3 supermotif-bearing peptides
HLA-A*6801 = HLA-A*6801 (Homo sapiens, UniProt P04439, A269V/D185E/E176V/E277Q/E87N/F33Y/G231S/I121M/I166T/I218V/L180W/L300P/L318F/N151K/P208A/P217A/Q86R/R169H/T345S); assay type: binding; conditions: Table XXIII, HLA-A3 supermotif-bearing peptides
[2] = Table XIX, DR supermotif peptides
[3] = Table XXa, DR 3a motif peptides

SMILES	DR1 binding data (DRB1*0101 (DR1); [2])	DR3 binding data (DRB1*0301 (DR3); [2])	DR4w4 binding data (DRB1*0401 (DR4w4); [2])	DR7 binding data (DRB1*0701 (DR7); [2])	DR8w2 binding data (DRB1*0802 (DR8w2); [2])	DR5w11 binding data (DRB1*1101 (DR5w11); [2])	DR6w19 binding data (DRB1*1302 (DR6w19); [2])	DR2wB1 binding data (DRB1*1501 (DR2w2β1); unit not given)	DR2w2B2 binding data (DRB5*0101 (DR2w2β2); [2])	No. of DR Alleles Crossbound [1]	DR147 Binding [1]	DR147 Cross-binding [1]	Broad Binding (5/8) [1]	IC50 (HLA-A*0301) [nM]	IC50 (HLA-A*1101) [nM]	IC50 (HLA-A*3101) [nM]	IC50 (HLA-A*3301) [nM]	IC50 (HLA-A*6801) [nM]	other results
CSCC[C@H](NC(=O)[C@@H](NC(=O)[C@H](Cc1ccc(O)cc1)NC(=O)[C@H](C)NC(=O)[C@H](CCC(=O)O)NC(=O)[C@@H](N)CC(=O)O)C(C)C)C(=O)N[C@@H](C)C(=O)NCC(=O)N[C@H](C(=O)NCC(=O)N[C@@H](CO)C(=O)N1CCC[C@H]1C(=O)N[C@@H](Cc1ccc(O)cc1)C(=O)N[C@H](C(=O)N[C@@H](CO)C(=O)O)C(C)C)C(C)C	0.0500	0.0010	0.2300	0.2000	0.0570	0.0027	0.0020	0.0029	0.0240	5	3	3	5						IC50 (DRB1*0802 (DR8w2); Table XXIX, read-out: DR8w2 nM): 860 nM; IC50 (DRB1*1302 (DR6w19); Table XXIX, read-out: DR6w19 nM): 1750 nM; IC50 (DRB1*1501 (DR2w2β1); Table XXIX, read-out: DR2w2β1 nM): 3140 nM; IC50 (DRB5*0101 (DR2w2β2); Table XXIX, read-out: DR2w2β2 nM): 833 nM
CC[C@H](C)[C@H](NC(=O)[C@H](C)NC(=O)[C@@H](NC(=O)[C@@H]1CCCN1C(=O)[C@@H](NC(=O)[C@H](CCCCN)NC(=O)[C@@H](NC(=O)[C@H](CC(N)=O)NC(=O)[C@H](CCC(=O)O)NC(=O)CN)C(C)C)[C@@H](C)CC)C(C)C)C(=O)N[C@@H](CCCCN)C(=O)N[C@H](C(=O)N[C@@H](CC(C)C)C(=O)N[C@@H](CCCNC(=N)N)C(=O)N[C@@H](CCC(=O)O)C(=O)O)C(C)C	0.0630	0.0098	−0.0032	0.0310	0.0010	−0.0005	0.0004	0.0047	0.0034		2	2	2						
CC[C@H](C)[C@H](NC(=O)[C@H](CCCNC(=N)N)NC(=O)[C@H](CCSC)NC(=O)[C@@H](N)CCC(N)=O)C(=O)N[C@@H](CC(C)C)C(=O)N[C@@H](CCCCN)C(=O)N[C@@H](CCC(=O)O)C(=O)N[C@H](C(=O)N[C@@H](CCC(=O)O)C(=O)N[C@@H](CC(C)C)C(=O)N[C@@H](CCCNC(=N)N)C(=O)N[C@@H](CCCCN)C(=O)N[C@H](C(=O)N[C@@H](CCCCN)C(=O)N[C@H](C(=O)O)C(C)C)C(C)C)[C@@H](C)O										3									DR1 binding data (DRB1*0101 (DR1); [3]): 0.0419; DR3 binding data (DRB1*0301 (DR3); [3]): 0.3200; DR4w4 binding data (DRB1*0401 (DR4w4); [3]): −0.0055; DR7 binding data (DRB1*0701 (DR7); [3]): 0.0130; DR8w2 binding data (DRB1*0802 (DR8w2); [3]): 0.0064; DR5w11 binding data (DRB1*1101 (DR5w11); [3]): 0.0041; DR6w19 binding data (DRB1*1302 (DR6w19); [3]): 0.0008; DR2w2B1 binding data (DRB1*1501 (DR2w2β1); Table XXa, DR 3a motif peptides, unit not given): 0.0150; DR2w2B2 binding data (DRB5*0101 (DR2w2β2); [3]): 0.5900
CC[C@H](C)[C@H](NC(=O)[C@H](CCC(=O)O)NC(=O)[C@@H](NC(=O)[C@H](CC(C)C)NC(=O)[C@H](CO)NC(=O)[C@H](CCCNC(=N)N)NC(=O)[C@H](CC(C)C)NC(=O)[C@@H](N)CCC(N)=O)[C@@H](C)O)C(=O)N[C@@H](CC(C)C)C(=O)N[C@@H](CCCCN)C(=O)O [Her2/neu.141]														55	462	667	6170	> 10000	
CC[C@H](C)[C@H](N)C(=O)N[C@H](C(=O)N[C@@H](CCCCN)C(=O)NCC(=O)NCC(=O)N[C@H](C(=O)N[C@@H](CC(C)C)C(=O)N[C@H](C(=O)N[C@@H](CCC(N)=O)C(=O)N[C@@H](CCCCN)C(=O)O)[C@@H](C)CC)C(C)C)C(C)C [Her2/neu.148.V2K10]														26	102	450	6590	27	
CC[C@H](C)[C@H](N)C(=O)N[C@H](C(=O)N[C@@H](CCCCN)C(=O)NCC(=O)NCC(=O)N[C@H](C(=O)N[C@@H](CC(C)C)C(=O)N[C@H](C(=O)N[C@@H](CCC(N)=O)C(=O)N[C@@H](CCCNC(=N)N)C(=O)O)[C@@H](C)CC)C(C)C)C(C)C [Her2/neu.148.V2]														275	7500	72		29	
